System: 156681-154-R-J1-PDC complex spheroid viability
Experiment: Anticancer human tumor 156681-154-R-J1-PDC patient-derived melanoma cell line growth inhibition [CLK]
Settings: for IC50: curve of first compound; for viability, T/C: stronger effect = lower value
Method in brief: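 Patient-derived tumor cells grown as complex spheroids with HUVEC endothelial cells and mesenchymal stem cells, treated with drug combinations. Concentrations descend in half-log steps from near clinical Cmax, or from 10 microM if Cmax unknown.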

[1] = second compound 0.0316 µM, first compound 0.0316 µM
[2] = second compound 0.0316 µM, first compound 0.1 µM
[3] = second compound 0.0316 µM, first compound 0.316 µM
[4] = second compound 0.0316 µM, first compound 1 µM
[5] = second compound 0.0316 µM, first compound 3.16 µM
[6] = second compound 0.0316 µM, first compound 10 µM
[7] = second compound 0.1 µM, first compound 0.0316 µM
[8] = second compound 0.1 µM, first compound 0.1 µM
[9] = second compound 0.1 µM, first compound 0.316 µM
[10] = second compound 0.1 µM, first compound 1 µM
[11] = second compound 0.1 µM, first compound 3.16 µM
[12] = second compound 0.1 µM, first compound 10 µM
[13] = second compound 0.316 µM, first compound 0.0316 µM
[14] = second compound 0.316 µM, first compound 0.1 µM
[15] = second compound 0.316 µM, first compound 0.316 µM
[16] = second compound 0.316 µM, first compound 1 µM
[17] = second compound 0.316 µM, first compound 3.16 µM
[18] = second compound 0.316 µM, first compound 10 µM
[19] = second compound 1 µM, first compound 0.0316 µM
[20] = second compound 1 µM, first compound 0.1 µM
[21] = second compound 1 µM, first compound 0.316 µM
[22] = second compound 1 µM, first compound 1 µM
[23] = second compound 1 µM, first compound 3.16 µM
[24] = second compound 1 µM, first compound 10 µM
[25] = second compound 3.16 µM, first compound 0.0316 µM
[26] = second compound 3.16 µM, first compound 0.1 µM
[27] = second compound 3.16 µM, first compound 0.316 µM
[28] = second compound 3.16 µM, first compound 1 µM
[29] = second compound 3.16 µM, first compound 3.16 µM
[30] = second compound 3.16 µM, first compound 10 µM
[31] = second compound 10 µM, first compound 0.0316 µM
[32] = second compound 10 µM, first compound 0.1 µM
[33] = second compound 10 µM, first compound 0.316 µM
[34] = second compound 10 µM, first compound 1 µM
[35] = second compound 10 µM, first compound 3.16 µM
[36] = second compound 10 µM, first compound 10 µM
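Further: spheroids exposed to the agents for seven days.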
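Wherever viability, T/C is given: 100% = DMSO vehicle control viability.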

In the case of `Nc1ccn(C2OC(CO)C(O)C2(F)F)c(=O)n1` (centres undefined) + CNC(=O)c1ccc(Nc2nc(OC3CCCC3)c3c(-c4ccc5nc(C)oc5c4)c[nH]c3n2)c(OC)c1, the IC50 (second compound 0.0316 µM) is reported as under 31.6 nM, the IC50 (second compound 0.1 µM) is reported as under 31.6 nM and the IC50 (second compound 0.316 µM) is reported as under 31.6 nM. It also gave an IC50 (second compound 1 µM) of under 31.6 nM, an IC50 (second compound 3.16 µM) of under 31.6 nM and an IC50 (second compound 10 µM) of under 31.6 nM. For the same compound, the viability, T/C [1] was 12.3%, the viability, T/C [2] was 15.9% and the viability, T/C [3] was 13.6%. For the same compound, the viability, T/C [4] was 17.9%, the viability, T/C [5] was 15.6% and the viability, T/C [6] was 15.2%. It also gave a viability, T/C [7] of 13.2%, a viability, T/C [8] of 13.4% and a viability, T/C [9] of 14.2%. The viability, T/C [10] was 16.1%, the viability, T/C [11] was 15.7% and the viability, T/C [12] was 14%. For the same compound, the viability, T/C [13] was 15.7%, the viability, T/C [14] was 11.9% and the viability, T/C [15] was 19%. For the same compound, the viability, T/C [16] was 13%, the viability, T/C [17] was 12.2% and the viability, T/C [18] was 12.5%. It also gave a viability, T/C [19] of 20.5%, a viability, T/C [20] of 11.2% and a viability, T/C [21] of 7.8%. For the same compound, the viability, T/C [22] was 9.13%, the viability, T/C [23] was 12.3% and the viability, T/C [24] was 10.8%. The viability, T/C [25] was 25.3%, the viability, T/C [26] was 12.3% and the viability, T/C [27] was 9.98%. For the same compound, the viability, T/C [28] was 7.12%, the viability, T/C [29] was 11.4% and the viability, T/C [30] was 7.7%. The viability, T/C [31] was 28.5%, the viability, T/C [32] was 12.4% and the viability, T/C [33] was 9.66%. It also gave a viability, T/C [34] of 9.99%, a viability, T/C [35] of 12.1% and a viability, T/C [36] of 7.49%.
`O=c1[nH]cc(F)c(=O)[nH]1` + CNC(=O)c1ccc(Nc2nc(OC3CCCC3)c3c(-c4ccc5nc(C)oc5c4)c[nH]c3n2)c(OC)c1 gave an IC50 (second compound 0.0316 µM) of 7950 nM, an IC50 (second compound 0.1 µM) of 5500 nM and an IC50 (second compound 0.316 µM) of 3420 nM. For the same compound, the IC50 (second compound 1 µM) was 4120 nM, the IC50 (second compound 3.16 µM) was under 31.6 nM and the IC50 (second compound 10 µM) was under 31.6 nM. For the same compound, the viability, T/C [1] was 96.6%, the viability, T/C [2] was 99% and the viability, T/C [3] was 91.9%. The viability, T/C [4] was 95.9%, the viability, T/C [5] was 86.9% and the viability, T/C [6] was 40.8%. For the same compound, the viability, T/C [7] was 63.9%, the viability, T/C [8] was 79.2% and the viability, T/C [9] was 74.4%. It also gave a viability, T/C [10] of 74.3%, a viability, T/C [11] of 59.6% and a viability, T/C [12] of 39.7%. The viability, T/C [13] was 78.6%, the viability, T/C [14] was 75.2% and the viability, T/C [15] was 73.4%. It also gave a viability, T/C [16] of 60.7%, a viability, T/C [17] of 53.8% and a viability, T/C [18] of 30.6%. For the same compound, the viability, T/C [19] was 70.7%, the viability, T/C [20] was 46.3% and the viability, T/C [21] was 58.2%. It also gave a viability, T/C [22] of 52.7%, a viability, T/C [23] of 62.2% and a viability, T/C [24] of 23.6%. For the same compound, the viability, T/C [25] was 49.7%, the viability, T/C [26] was 42.3% and the viability, T/C [27] was 47.9%. The viability, T/C [28] was 43.8%, the viability, T/C [29] was 35% and the viability, T/C [30] was 19.8%. The viability, T/C [31] was 51%, the viability, T/C [32] was 40.5% and the viability, T/C [33] was 41.2%. For the same compound, the viability, T/C [34] was 45.4%, the viability, T/C [35] was 41.2% and the viability, T/C [36] was 20.1%.

Reference: PubChem BioAssay AID2060627 (Molecular Pharmacology Branch, DTP, NCI, 2025)
